{"source": "patent US8389544B2", "about": "“Isoquinolone compounds as subtype-selective agonists for melatonin receptors MT1 and MT2” (The Hong Kong University of Science and Technology, priority 2007, dated 2013)", "key": {"MT2/293": {"test_system": "MT2/293", "experiment": "MTT cytotoxicity assay, MT2/293 cells", "type": "cell-based", "details": "percentage of untreated control cells", "procedure": "(§1) This assay evaluates the cytotoxic effects of the novel isoquinolone compounds based on the cellular viability under chronic treatments. Viable cells but not dead cells can turn the substrate into a colored product, which yields higher absorbance. […] A low percentage indicates low cytoviability (or high cytotoxicity).\n(§2) 5. Cytotoxicity Test Using MTT Assay\n(§3) Cells were seeded into clear 96-well plate at an appropriate density in 100 μl growth medium and were allowed to grow overnight. The novel isoquinolone compounds were diluted to desired concentrations using fresh growth medium, and these dilutions were used to replace the growth media in each well. After incubating for 24-96 h, 10 μl of the MTT labeling reagent (Roche) was added to each well and the cells were incubated in a CO2 incubator for 4 h. 100 μl solubilization buffer was then added into each well and incubated overnight for complete solubilization of the purple formazan crystals. […] Each condition was performed in triplicate in every experiment and the results were expressed as % of blank control±SD."}, "MT1/293": {"test_system": "MT1/293", "experiment": "MTT cytotoxicity assay, MT1/293 cells", "type": "cell-based", "details": "percentage of untreated control cells", "procedure": "as §1, §2, §3"}, "MT2 receptor [1]": {"target": "T1, MT2 receptor (Homo sapiens, UniProt P49286)", "T1 sequence (P49286 1-362)": "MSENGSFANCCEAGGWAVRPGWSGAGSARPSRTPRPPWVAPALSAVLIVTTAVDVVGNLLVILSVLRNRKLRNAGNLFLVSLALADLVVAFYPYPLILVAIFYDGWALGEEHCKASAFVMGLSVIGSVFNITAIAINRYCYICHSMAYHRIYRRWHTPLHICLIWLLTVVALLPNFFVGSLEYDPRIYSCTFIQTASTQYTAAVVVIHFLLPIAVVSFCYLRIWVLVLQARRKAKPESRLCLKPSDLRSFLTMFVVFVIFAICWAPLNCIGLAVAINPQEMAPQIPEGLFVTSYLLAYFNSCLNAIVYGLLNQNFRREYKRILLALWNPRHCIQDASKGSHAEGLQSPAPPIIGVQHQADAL", "experiment": "CRE-Luc (luciferase reporter gene) assay, MT2", "type": "cell-based", "parameters": "expressed in transfected cells", "details": "HEK 293-pCREluc cells with MT2; inhibition of forskolin response", "procedure": "(§4) The luciferase reporter gene assay offers another way to measure melatonin receptor activation. Cells expressing cAMP-responsive element-driven luciferase reporter gene (293-pCREluc) and either the MT1 or MT2 receptor are treated with forskolin (a substance which stimulates cAMP production as well as the subsequent luciferase gene expression) alone or with a novel isoquinolone compound. As melatonin receptor activation inhibits cAMP production, any suppression in the expression of luciferase leads to a decrease in enzymatic activities and a reduction in the amount of luminescence signal generated.\n(§5) The luciferase assay, a reporter gene assay, was performed to confirm the ability of the invention to activate the melatonin receptors. Prior to the assay, HEK (human embryonic kidney) 293 cells are stably transfected with cAMP-responsive element-driven luciferase reporter gene (293-pCREluc) and cDNAs encoding MT1 or MT2 receptors. The cells are then exposed to the novel isoquinolone compounds, after which the substrate luciferin is added and the resulting luminescence measured.\n(§6) Prior to the assay human embryonic kidney (HEK) 293 cells (CRL-1573, ATCC) is maintained at 37° C. in minimum essential medium (MEM) supplemented with 10% fetal bovine serum (FBS), 100 units/ml penicillin and 100 μg/ml streptomycin in a humidified atmosphere containing 5% CO2. Human embryonic kidney 293 cells stably transfected with cAMP-responsive element-driven luciferase reporter gene (293-pCREluc) are established and maintained in growth medium supplemented with 300 μg/ml G418 sulphate.\n(§7) For luciferase assays, HEK-293 cells stably expressing pCRE-luciferase are seeded at a density of 15,000 cells/well into 96 well plates. Transfection is carried out using Lipofectamine Plus® reagent at 0.2 μl of both Plus and lipofectamine reagents with 50 ng cDNAs encoding MT1 or MT2 receptors per well. After a 3 hour transfection period at 37° C., 50 μl of DMEM with 20% fetal calf serum (FCS) is added into the wells and the plate is incubated at 37° C. for 48 h prior to 24 hour serum starvation. […]\n(§8) Cells are harvested by replacing medium in the well by 50 μl luciferase lysis buffer. The Berthold microplate luminometer is maintained at 25° C. throughout the assay. Injector M connected to an empty tube and P connected to the drug tube are set to inject 25 μl of luciferin into appropriate wells. A 1.6 second delay time followed by a 1 second measuring time period is assigned to injector M, whereas injector P is measured for 10 seconds after luciferase substrate is introduced into the well. Results are expressed as relative luminescent units (RLU). Where indicated, agonist-induced activity is expressed as a percentage of the RLU obtained with forskolin."}, "Parental 293": {"test_system": "Parental 293", "experiment": "MTT cytotoxicity assay, parental 293 cells", "type": "cell-based", "details": "percentage of untreated control cells", "procedure": "as §1, §2, §3"}, "MT2 receptor [2]": {"target": "T1, MT2 receptor", "experiment": "cAMP assay, MT2", "type": "cell-based", "parameters": "expressed in transfected cells; host or cells: COS-7 (monkey kidney fibroblast)", "details": "inhibition of forskolin-stimulated cAMP production; MT2-expressing cells"}, "MT2 receptor [3]": {"target": "T1, MT2 receptor", "experiment": "Competitive [3H]melatonin binding assay, MT2", "parameters": "expressed in transfected cells", "details": "displacement of [3H]melatonin", "procedure": "(§9) Competitive ligand binding assays were performed to examine the receptor binding characteristics of the novel isoquinolone compounds. The assay measures the ability of the novel isoquinolone compounds to bind and displace the radiolabelled endogenous ligand, [^3H]melatonin. Increasing concentrations of the novel compounds are added to displace the [^3H]melatonin-bound to MT1 or MT2 receptor-expressing cells.\n(§10) 4. Competitive Binding Assay\n(§11) The ability of compounds to bind to MT1 and/or MT2 receptors is determined using radioligand binding assays. […] 48 hours following transfection, cells are harvested in binding buffer (50 mM Tris-HCl, 2 mM MgCl2, 1 mM EDTA, pH 7.4). 100,000 cells are incubated with 1 nM [^3H] melatonin (specific activity: 83 Ci/mmol; GE Healthcare) and appropriate concentrations (0.1 nM to 1 μM) of unlabelled ligands in a total volume of 100 μl in 96-well plates (PerkinElmer Life And Analytical Sciences, Inc., Boston, Mass.) for 2 hours at room temperature. Reactions are terminated by rapid filtration through a 96-well cell harvester onto 96-well GF/C filter mats. Filters are washed with 500 μl of ice-cold binding buffer, dried and sealed in a polyethylene bag with 3.5 ml of scintillation fluid and counted for tritium in a Microbeta Jet scintillation counter. […] Data are analyzed by nonlinear least-squares regression using GraphPad Prism 3.02."}, "MT1 receptor [4]": {"target": "T2, MT1 receptor (Homo sapiens, UniProt P48039)", "T2 sequence (P48039 whole entry)": "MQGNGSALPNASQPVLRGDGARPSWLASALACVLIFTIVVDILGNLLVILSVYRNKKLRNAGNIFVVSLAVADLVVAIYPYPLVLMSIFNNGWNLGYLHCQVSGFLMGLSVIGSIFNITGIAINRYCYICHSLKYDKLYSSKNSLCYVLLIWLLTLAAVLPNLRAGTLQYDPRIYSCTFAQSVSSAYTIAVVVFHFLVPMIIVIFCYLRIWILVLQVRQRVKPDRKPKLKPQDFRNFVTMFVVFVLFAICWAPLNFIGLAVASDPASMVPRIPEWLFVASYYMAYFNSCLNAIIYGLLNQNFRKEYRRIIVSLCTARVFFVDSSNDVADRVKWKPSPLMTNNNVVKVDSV", "experiment": "CRE-Luc (luciferase reporter gene) assay, MT1", "type": "cell-based", "parameters": "expressed in transfected cells", "details": "HEK 293-pCREluc cells with MT1; inhibition of forskolin response", "procedure": "as §4, §5, §6, §7, §8"}, "MT1 receptor [5]": {"target": "T2, MT1 receptor", "experiment": "cAMP assay, MT1", "type": "cell-based", "parameters": "expressed in transfected cells; host or cells: COS-7 (monkey kidney fibroblast)", "details": "inhibition of forskolin-stimulated cAMP production; MT1-expressing cells"}, "MT1 receptor [6]": {"target": "T2, MT1 receptor", "experiment": "Competitive [3H]melatonin binding assay, MT1", "parameters": "expressed in transfected cells", "procedure": "as §9, §10, §11"}}, "data": [{"compound": "COc1ccc2[nH]c(I)c(CCNC(C)=O)c2c1", "note": "[Compound 2-IMT, 2-iodomelatonin, reference compound]", "values": [{"measurement": "MTT Assay MT2/293 % Viability ± SEM", "setting": "MT2/293", "result": "119.5 ± 8.3", "unit": "%"}, {"measurement": "MTT Assay MT1/293 % Viability ± SEM", "setting": "MT1/293", "result": "113.3 ± 7.0", "unit": "%"}, {"measurement": "CRE-Luc Assay MT2 % Inh ± SEM of 1 μM Fsk", "setting": "MT2 receptor [1]", "result": "61.9 ± 5.0", "unit": "%"}, {"measurement": "MTT Assay Parental 293 % Viability ± SEM", "setting": "Parental 293", "result": "105.9 ± 4.3", "unit": "%"}, {"measurement": "cAMP Assay MT2 % Inh", "setting": "MT2 receptor [2]", "result": "51.9 ± 5.6", "unit": "%"}, {"measurement": "Binding Assay MT2 % Inh", "setting": "MT2 receptor [3]", "result": 85.1, "unit": "%"}, {"measurement": "CRE-Luc Assay MT1 % Inh ± SEM of 1 μM Fsk", "setting": "MT1 receptor [4]", "result": "73.0 ± 2.2", "unit": "%"}, {"measurement": "cAMP Assay MT1 % Inh", "setting": "MT1 receptor [5]", "result": "48.5 ± 17.8", "unit": "%"}, {"measurement": "displacement of bound [3H]melatonin", "setting": "MT1 receptor [6]; b129, MT1 or MT2 receptor-expressing cells, both subtypes", "result": "85-95%"}, {"measurement": "Binding Assay MT1 % Inh", "setting": "MT1 receptor [6]; displacement of [3H]melatonin", "result": 94.9, "unit": "%"}]}]}
